Data taken from patent US20230273228A1, “Diagnostic Method and Compounds for the Treatment of Infections Caused by a Pathogen” (priority 2020, published 2023).

What was measured:
Assay type in all cases: in vivo, Golden Syrian Hamster
[1] = test system: TNF-α; test: Cytokine/chemokine profile by qRT-PCR in lung tissues and blood of SARS-CoV-2 infected hamsters
[2] = test system: SARS-CoV-2; test: Viral load determination by quantitative real-time RT-PCR in tissues of infected hamsters
[3] = test system: SARS-CoV-2; test: Body weight variation of hamsters infected with SARS-CoV-2

Compound: CC/C=C\C/C=C\C[C@H](O)\C=C/C=C/C=C/[C@H](O)C/C=C\CCC(=O)OC [MaR1 ME, Methyl 7R,14S-dihydroxy-4Z,8E,10E,12Z,16Z,19Z-docosahexaenoate]
- Impact on the chemokine and cytokine profile in infected animals [1]: significant impact
- Levels of TNF-α in the lungs compared with untreated animals ([1]; lung tissue, 4, 7 and 14 dpi): significantly lower
- Impact on viral load in tissues [2]: significant impact
- Viral load in the lungs ([2]; after a few days of treatment): significantly reduced
- Improvement in weight loss, dependence on dose ([3]; MaR1 ME 0.05 and 0.5 mg/kg i.p. twice daily): dose dependent
- Loss of body weight compared with infected untreated animals ([3]; SARS-CoV-2 infected hamsters, MaR1 ME 0.05 and 0.5 mg/kg i.p., Lipinova 1.20 mg/kg by gavage, twice daily): decreases significantly
- Body weight loss ([3]; highest dose of MaR1 ME (0.5 mg/kg i.p. twice daily from day 2 post inoculation), SARS-CoV-2 infected hamsters): less than 5%
